For the test, the target named is Bcl-2-like protein 1 (Homo sapiens) (UniProt Q07817). The experiment in a line: Bcl-XL binding to Bim peptide disruption – biochemical, multiplexed, bead flow cytometry, human Bcl-XL, dose response (AID 1322). On inhibition: test concentration not given here. The following applies: Bead-based flow cytometry, MCF; for inhibition: hits give high values. On the technique in general: In flow cytometry, cells or beads pass a laser one at a time.

Activity calls are given as the source filed them. How the calls were made is not given here.

The source of these data is PubChem BioAssay AID1322 (NMMLSC, 2008).

Bcl-2-like protein 1 (Homo sapiens), sequence (Q07817 whole entry, looked up): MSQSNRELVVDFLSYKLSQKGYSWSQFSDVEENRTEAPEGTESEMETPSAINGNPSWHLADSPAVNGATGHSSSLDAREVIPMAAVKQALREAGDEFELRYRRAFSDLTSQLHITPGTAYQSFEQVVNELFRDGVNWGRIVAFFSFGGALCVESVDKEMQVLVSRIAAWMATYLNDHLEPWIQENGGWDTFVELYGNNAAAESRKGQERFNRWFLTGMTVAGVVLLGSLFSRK

In the case of `Cc1cccc(-n2c(O)c(/C=N/N3CCOCC3)c(=O)[nH]c2=S)c1`, the inhibition result is “inactive”.

Regarding `COc1cccc(NC(=O)CSc2nncn2N)c1`, the inhibition result is “inactive”.

In the case of `CCN(CC)c1ccc(NC(=O)c2ccccc2Br)cc1S(=O)(=O)Nc1ccccc1OC`, the inhibition result was “inactive”.

As for `O=C(Nc1ccccc1)Nc1ccc2ncoc2c1`, the inhibition entry is “inactive”.

`O=C(Nc1ccc2nc(-c3ccco3)c(-c3ccco3)nc2c1)NC1CC1`: the inhibition result was “inactive”.

As to `COc1ccc(CN(C)CC(=O)NC(C)c2ccccc2)c(OC)c1` (stereo unspecified), the inhibition entry is “inactive”.

Turning to `COc1ccc(NS(=O)(=O)c2cc(NC(=O)c3ccc(C)o3)ccc2N2CCCCC2)cc1`, the inhibition entry is “inactive”.

As to `COc1ccc(OCCNC(=O)c2ccccc2OCC(=O)N2CCCCC2)cc1`, the inhibition result was “inactive”.

In the case of `O=C(CNC(=O)c1ccco1)NCC(=O)OCc1ccccc1Br`, the inhibition entry is “inactive”.

With `C#CCOCCOCCOCCNc1nc(N2CCN(C(=O)[C@H](CCCCN)n3cc(CCCC)nn3)CC2)nc(N2CCN(C(=O)[C@H](Cc3ccc(O)cc3)n3cc(CCO)nn3)CC2)n1`, the inhibition entry is “inactive”.

For `Nc1ccc(Nc2nc(-c3ccncc3)cs2)cc1`, the inhibition result is “inactive”.

`Cc1cccc(NC(=S)N2CCn3cccc3C2c2cccnc2)c1` (stereo unspecified): the inhibition entry was “inactive”.

Take `O=C(c1cc(=O)c2ccccc2o1)N1CCN(c2ccccc2F)CC1`: the inhibition entry is “inactive”.

For `COc1ccc(S(=O)(=O)NCCSc2ccccc2)cc1OC`, the inhibition result is “inactive”.

Consider `O=C(NCCc1ccccc1)c1ccc2nc(-c3ccco3)c(-c3ccco3)nc2c1`, for which the inhibition result was “inactive”.

In the case of `Cn1c(N)c(C(=O)COC(=O)c2cc(-c3ccco3)nc3ccccc23)c(=O)n(Cc2ccccc2)c1=O`, the inhibition result is “inactive”.

As to `COc1ccc(Cl)cc1-n1c(C)cc(C=O)c1C`, the inhibition result is “inactive”.

As to `O=C(CSc1nnc(-c2cccs2)n1Cc1ccco1)c1ccc2c(c1)OCO2`, the inhibition result is “inactive”.

With `OCCC1CN(Cc2nc3c(s2)CCCC3)CCN1Cc1ccsc1` (stereo unspecified), the inhibition entry was “inactive”.

Turning to `CCN(CC)c1ccc(NC(=O)c2ccccc2)cc1S(=O)(=O)Nc1ccccc1OC`, the inhibition result was “inactive”.

Consider `COC(=O)c1ccc(-n2nnnc2SCC(=O)Nc2cc(OC)ccc2OC)cc1`, for which the inhibition entry is “inactive”.

In the case of `O=C(CSc1nnc(Cc2ccccc2)o1)NCc1ccco1`, the inhibition result is “inactive”.

Turning to `Cc1ccccc1OCC(=O)N/N=C/c1ccccn1`, the inhibition result was “inactive”.

Consider `Cc1ccc(C(NC(=O)C(C)C)c2cc([N+](=O)[O-])c3cccnc3c2O)cc1` (stereo unspecified), for which the result was inactive.

As to `Cn1c(CNc2nc(-c3ccccc3)cs2)nnc1SCC(=O)N1CCc2ccccc21`, the inhibition entry is “inactive”.

`COc1ccc(NC(=O)C2=C(C)NC(=O)NC2c2cccc(OC)c2OC)c(OC)c1` (stereo unspecified): the inhibition entry was “inactive”.

Turning to `Cc1cc(N)ccc1N1CCCC1`, the inhibition entry is “inactive”.

Consider `Cc1ccc(NC2=C(NC(=O)c3ccccc3)C(=O)c3ccccc3C2=O)cc1Cl`, for which the inhibition entry is “inactive”.

Consider `COc1ccc(/C=C/C(=O)c2cc(Br)ccc(=O)c2O)cc1`, for which the outcome was inactive.

As for `Cn1c(=O)c(C(=O)COC(=O)c2cc(-c3ccco3)nc3ccccc23)c(N)n(Cc2ccccc2)c1=O`, the inhibition result is “inactive”.

With `Cc1ccc2nc3c(cc(C(N)=S)c(=N)n3CCCOC(C)C)c(=O)n2c1`, the inhibition entry is “inactive”.

`O=C(Cc1ccccc1)OCCNC(=O)c1cccnc1`: the inhibition entry was “inactive”.

`Clc1ccc(N=c2ssnc2Cl)nc1`: the result was inactive.

As for `COc1ccc2nc(-c3ccco3)c(-c3ccco3)nc2c1`, the inhibition result was “inactive”.

As to `Fc1cccc(Nc2nc(-c3ccncc3)nc3ccccc23)c1`, the result was inactive.

Regarding `O=C(CSc1nc2ccsc2c(=O)n1Cc1ccc(C(=O)O)cc1)NCC1CCCO1` (stereo unspecified), the inhibition entry is “inactive”.

Take `O=C(NCc1ccccc1)c1ccc2nc(-c3ccco3)c(-c3ccco3)nc2c1`: the inhibition result was “inactive”.

Turning to `N#CC(C#N)=C1C=CC=CN1/C(=C\c1ccco1)C(=O)c1ccccc1`, the inhibition result was “inactive”.

`CCN1CCN(c2cc(C)c3cc(NC(=S)N4CCCCC4)ccc3n2)CC1`: the inhibition result is “inactive”.

On to `Cc1cc2nc(/C(C#N)=C/c3ccncc3)[nH]c2cc1C`, for which the inhibition result was “inactive”.

Regarding `CCCCOC(=O)c1nc(Cl)c(Cl)c(N)c1Cl`, the inhibition entry was “inactive”.

With `Cc1ccc(/C=C2\CCCC3=C2NC(=S)NC3c2ccc(C)cc2)cc1` (stereo unspecified), the inhibition result was “inactive”.

For the compound `O=C1/C(=C\c2ccco2)NC(=S)N1c1ccccc1`, the inhibition entry is “inactive”.

In the case of `O=C(NC1=C(Nc2ccc(Cl)cc2)C(=O)c2ccccc2C1=O)c1ccccc1`, the inhibition result is “inactive”.

Turning to `CCOc1ccc(C(=O)Nc2nnc(NC(=S)Nc3ccccc3)s2)cc1`, the inhibition result is “inactive”.

For `CC(C)c1ccc(/C=N/NC(=O)c2ccccc2Cl)cc1`, the inhibition entry was “inactive”.

Regarding `Cc1onc(-c2ccccc2Cl)c1C(=O)Nc1nn[nH]n1`, the inhibition entry was “inactive”.

Consider `Cc1ccc(Nc2nc(CSc3nnc(-c4cccnc4)n3-c3ccccc3C)cs2)cc1`, for which the inhibition entry is “inactive”.

As to `Cc1cc(-c2csc(N)n2)c(C)n1CCc1ccccc1`, the inhibition result was “inactive”.

Consider `COc1ccc2nc(C)cc(SCC(=O)N/N=C/c3ccc(O)c(O)c3)c2c1`, for which the inhibition result is “inactive”.

As for `CNC(=O)c1sc(-c2ccccn2)nc1C`, the inhibition entry is “inactive”.

With `COc1cc(/C=N/Nc2nc3c(c(=O)n(C)c(=O)n3C)n2Cc2ccccc2)ccc1OC(=O)c1ccco1`, the outcome was inactive.

In the case of `c1ccc(Nc2nc(-c3ccncc3)cs2)cc1`, the inhibition result was “inactive”.

As for `N#Cc1ccc(N=c2ssnc2Cl)cc1`, the inhibition entry is “inactive”.

For `CNC(=S)N/N=C/C1=CCC2CC1C2(C)C` (stereo unspecified), the inhibition entry was “inactive”.

For `CCOC(=O)c1snc(-c2ccc(F)cc2)c1N`, the inhibition entry was “inactive”.

Regarding `Cc1ccc(-n2[nH]c(C)c(/C=N/Nc3ccc([N+](=O)[O-])cc3[N+](=O)[O-])c2=O)cc1C`, the inhibition entry was “inactive”.

As for `Cc1ccccc1-n1c(SCc2cccc(F)c2)nc2[nH]ncc2c1=O`, the result was inactive.

Turning to `CNc1ccc(Br)cc(C(=O)/C=C/c2ccc(OC)cc2OC)c1=O`, the inhibition result is “inactive”.

For `CN1N=C(C(=O)N2CCCC(C(=O)c3cccc(C(F)(F)F)c3)C2)CCC1=O` (stereo unspecified), the inhibition entry is “inactive”.

For `Cc1noc(C)c1CN1C(=O)NC(Cc2ccccc2)(Cc2ccccc2)C1=O`, the inhibition result was “inactive”.

Take `Cc1ccc(N=C2NC(=O)/C(=C/C=C/c3ccco3)S2)cc1`: the inhibition entry is “inactive”.

With `COc1ccc(NC(=O)COc2ncnc3ccccc23)cc1S(=O)(=O)N1CCOCC1`, the inhibition result was “inactive”.

For `CCn1c(SCC(=O)Nc2ccccc2-c2ccccc2)nnc1-c1ccoc1C`, the inhibition entry is “inactive”.

With `O=C1C(Cl)=C(N2CCN(c3ccccc3[N+](=O)[O-])CC2)C(=O)c2ccccc21`, the inhibition entry is “inactive”.

For the compound `Cc1ccc(SCCC(=O)Nc2ccc(Br)c(C)c2)cc1`, the inhibition result is “inactive”.
